From patent US20090088380A1, “GHRH ANALOGS AND THERAPEUTIC USES THEREOF” (priority 2007, published 2009)
Several values for one entry are separate records, joined by “and”; a condition that tells them apart may be missing. Identical values can stand only once. Non-standard residues stand in square brackets, D forms with d. Residues, ends and D or L forms follow the SMILES beside them.

Columns and labels:
[1] = tested on: IGF-1, IGFBP-1 and IGFBP-3; assay: Phase II CKD: total IGF-1, IGFBP-1 and IGFBP-3; format: in vivo, human
Method: Total IGF-1 (ng/mL), insulin-like growth factor binding protein (IGFBP-1 and IGFBP-3, ng/mL) were measured at every visit from baseline to Day 28 as markers for tissue and cell growth and proliferation. Samples were analysed at the Department of Nephrology, Endocrinology and Metabolic Diseases, Silesian University School of Medicine, Katowice using a Medgenix Diagnostics kit.

[2] = tested on: malnourished subjects with CKD; assay: Phase II CKD: 24-h urinary electrolytes; format: in vivo, human; settings: for Calcium excretion: mean (SD) / Calcium/Creatinine ratio: median / EER Calcium: mean (SD) / EER Chloride: mean (SD) / EER Phosphate: mean (SD) / EER Potassium: mean (SD) / EER Sodium: mean (SD) / EFER Calcium: mean (SD) / EFER Chloride: mean (SD) / EFER Phosphate: mean (SD) / EFER Potassium: mean (SD) / EFER Sodium: mean (SD) / Fractional Pi reabsorption rate Pi/GFR: mean (SD) / Sodium excretion: mean (SD): ITT population
Method: Subjects collected 24-hour urine samples at screening, baseline (Days 0 to 1) and Days 28 to 29. All of the samples were analysed for creatinine and urea clearance (mL/min). The samples collected at baseline and on Day 28 were also analysed for proteinuria (Coumassie method), PNA, sodium, potassium, chloride, calcium and phosphate. GFR was calculated using the Cockcroft-Gault formula: Electrolyte excretion rates were calculated as follows: ? [formula] Electrolyte fractional excretion rates were calculated as follows: [formula]

[3] = tested on: malnourished subjects with CKD; assay: Phase II CKD: biochemical markers of nutritional and metabolic state (plasma proteins, glucose control, lipids); format: in vivo, human
Method: Plasma proteins were measured as markers for renal disease and malnourishment. Blood samples were analysed locally. Albumin (g/L) were measured at screening, baseline and on Day 28. Blood samples for measurement of pre-albumin (g/L) were collected at baseline, Day 14 and Day 28. Transferrin (g/L) was measured at baseline, Day 7, Day 14 and Day 28.
HbA1c (%) was measured at screening and Day 28 as a marker for long-term glucose control. Fasting insulin (μunits/mL) and fasting glucose (mmol/L) were measured at baseline, Day 7, Day 14 and Day 28 as markers for short-term glucose control.
Fasting triglyceride (mmol/L) and fasting cholesterol (mmol/L) were measured at baseline, Day 7, Day 14 and Day 28 as markers for lipid metabolism.

[4] = tested on: Salmonella strains, Chinese Hamster Ovary cells, erythrocyte micronucleus test; assay: Mutagenicity tests
[5] = ITT, Day 28, listed as GHRH(1-29)NH2 synthetic analog
[6] = GHRH vs placebo, changes from baseline to Day 28
[7] = GHRH vs placebo, ANCOVA, assuming log-normal distribution

CC[C@H](C)[C@H](NC(=O)[C@H](C)NC(=O)[C@H](CC(=O)O)NC(=O)[C@@H](C)NC(=O)[C@@H](N)Cc1ccc(O)cc1)C(=O)N[C@@H](Cc1ccccc1)C(=O)N[C@H](C(=O)N[C@@H](CC(N)=O)C(=O)N[C@@H](CO)C(=O)N[C@H](Cc1ccc(O)cc1)C(=O)N[C@@H](CCCNC(=N)N)C(=O)N[C@@H](CCCCN)C(=O)N[C@H](C(=O)N[C@@H](CC(C)C)C(=O)N[C@H](C)C(=O)N[C@@H](CCC(N)=O)C(=O)N[C@@H](CC(C)C)C(=O)N[C@@H](CO)C(=O)N[C@@H](C)C(=O)N[C@@H](CCCNC(=N)N)C(=O)N[C@@H](CCCCN)C(=O)N[C@@H](CCCCN)C(=O)N[C@@H](CC(C)C)C(=O)N[C@@H](CCC(N)=O)C(=O)N[C@@H](CC(=O)O)C(=O)N[C@H](C(=O)N[C@@H](CCSC)C(=O)N[C@@H](CO)C(=O)N[C@@H](CCCNC(=N)N)C(N)=O)[C@@H](C)CC)C(C)C)[C@@H](C)O [GHRH analog #5, [D-Ala^2, D-Tyr^10, D-Ala^15, Lys^22] hGHRH(1-29)-NH2] (H-Y[dA]DAIFTNS[dY]RKVL[dA]QLSARKKLQDIMSR-NH2)
Mean decrease in IGFBP-1 concentration ([1]; 4-week treatment): 26.7% | IGFBP-3: adjusted difference between treatments ([1]; ITT): 580.85 ng/mL | IGFBP-1: mean (SD) ([1]; ITT, Baseline): 74.98 (39.13) ng/mL | IGFBP-3: median ([1]; ITT, Baseline): 4039.6 (813.7) ng/mL | Total IGF-1: median (95% CI) ([1]; ITT, Baseline): 335.8 (—) ng/mL | Total IGF-1: median (95% CI) ([1]; ITT, Baseline, listed as GHRH(1-29)NH2 synthetic analog): 335.8 ng/mL | Total IGF-1: median (95% CI) ([1]; ITT, Day 7): 576.0 (494.10; 828.70) ng/mL | Total IGF-1: median (95% CI) ([1]; ITT, Day 14): 611.8 (490.40; 913.60) ng/mL | Total IGF-1: median (95% CI) ([1]; ITT, Day 21): 729.8 (497.10; 913.50) ng/mL | IGFBP-1: mean (SD) ([1]; ITT, Day 28): 54.94 (30.72) ng/mL | IGFBP-3: median ([1]; ITT, Day 28): 5130.8 (961.0) ng/mL | Total IGF-1: median (95% CI) ([1]; ITT, Day 28): 684.2 (564.10; 881.80) ng/mL | Total IGF-1: median (95% CI) [1, 5]: 684.2 ng/mL | IGFBP-1: adjusted difference between GHRH and placebo ([1]; ITT, listed as GHRH(1-29)NH2 synthetic analog): 28.40 ng/mL | Median total IGF-1: increase ([1]; baseline to day 28): 104% | Calcium excretion: mean (SD) ([2]; Baseline): 0.988 (0.916) mmol/m^2/24 h | Calcium/Creatinine ratio: median ([2]; Baseline): 0.145 | EER Calcium: mean (SD) ([2]; Baseline): 0.027 (0.027) mmol/kg/24 h | EER Chloride: mean (SD) ([2]; Baseline): 2.213 (0.963) mmol/kg/24 h | EER Phosphate: mean (SD) ([2]; Baseline): 0.328 (0.220) mmol/kg/24 h | EER Potassium: mean (SD) ([2]; Baseline): 0.839 (0.332) mmol/kg/24 h | EER Sodium: mean (SD) ([2]; Baseline): 2.428 (1.134) mmol/kg/24 h | EFER Calcium: mean (SD) ([2]; Baseline): 1.933 (1.164) % | EFER Chloride: mean (SD) ([2]; Baseline): 3.636 (1.945) % | EFER Phosphate: mean (SD) ([2]; Baseline): 35.882 (14.172) % | EFER Potassium: mean (SD) ([2]; Baseline): 28.325 (13.618) % | EFER Sodium: mean (SD) ([2]; Baseline): 3.068 (1.658) % | Fractional Pi reabsorption rate Pi/GFR: mean (SD) ([2]; Baseline): 0.861 (0.291) mmol/ml | Sodium excretion: mean (SD) ([2]; Baseline): 89.90 (42.10) mmol/m^2/24 h | Calcium excretion: mean (SD) ([2]; Day 28): 1.295 (1.231) mmol/m^2/24 h | Calcium/Creatinine ratio: median ([2]; Day 28): 0.195 | EER Calcium: mean (SD) ([2]; Day 28): 0.036 (0.036) mmol/kg/24 h | EER Chloride: mean (SD) ([2]; Day 28): 2.277 (1.028) mmol/kg/24 h | EER Phosphate: mean (SD) ([2]; Day 28): 0.273 (0.129) mmol/kg/24 h | EER Potassium: mean (SD) ([2]; Day 28): 0.656 (0.315) mmol/kg/24 h | EER Sodium: mean (SD) ([2]; Day 28): 2.624 (1.020) mmol/kg/24 h | EFER Calcium: mean (SD) ([2]; Day 28): 2.743 (2.157) % | EFER Chloride: mean (SD) ([2]; Day 28): 4.156 (2.541) % | EFER Phosphate: mean (SD) ([2]; Day 28): 35.968 (12.979) % | EFER Potassium: mean (SD) ([2]; Day 28): 26.766 (18.120) % | EFER Sodium: mean (SD) ([2]; Day 28): 3.359 (1.156) % | Fractional Pi reabsorption rate Pi/GFR: mean (SD) ([2]; Day 28): 0.829 (0.211) mmol/ml | Sodium excretion: mean (SD) ([2]; Day 28): 96.70 (37.30) mmol/m^2/24 h | Calcium excretion: adjusted difference [2, 6]: −0.10 mmol/m^2/24 h | EER Calcium: adjusted difference [2, 6]: −0.002 mmol/kg/24 h | EER Chloride: adjusted difference [2, 6]: −0.136 mmol/kg/24 h | EER Phosphate: adjusted difference [2, 6]: 0.020 mmol/kg/24 h | EER Potassium: adjusted difference [2, 6]: −0.086 mmol/kg/24 h | EER Sodium: adjusted difference [2, 6]: −0.020 mmol/kg/24 h | EFER Calcium: adjusted difference [2, 6]: −0.48% | EFER Chloride: adjusted difference [2, 6]: −1.13% | EFER Phosphate: adjusted difference [2, 6]: −3.64% | EFER Potassium: adjusted difference [2, 6]: −7.93% | Fractional Pi reabsorption rate Pi/GFR: adjusted difference [2, 6]: -0.00006 mmol/mL | Sodium excretion: adjusted difference [2, 6]: −1.18 mmol/m^2/24 h | Calcium/Creatinine ratio: ratio (ratio of means) [2, 7]: 0.82 | EFER Sodium: ratio (ratio of means) [2, 7]: 0.79 | Calcium excretion: mean difference between groups ([2]; in vivo): −0.10 mmol/m^2/24 h | Calcium:creatinine ratio: ratio of means ([2]; in vivo): 0.82 | EER chloride: mean difference between groups ([2]; in vivo): −0.136 mmol/kg/24 h | EER phosphate: mean difference between groups ([2]; in vivo): 0.020 mmol/kg/24 h | EER potassium: mean difference between groups ([2]; in vivo): −0.086 mmol/kg/24 h | EER sodium: mean difference between groups ([2]; in vivo): −0.020 mmol/kg/24 h | EFER chloride: mean difference between groups ([2]; in vivo): −1.13% | EFER phosphate: mean difference between groups ([2]; in vivo): −3.64% | EFER potassium: mean difference between groups ([2]; in vivo): −7.93% | EFER sodium: ratio of means ([2]; in vivo): 0.79 | Electrolyte excretion rate (EER) calcium: mean difference between groups in change baseline to Day 28 ([2]; in vivo): −0.002 mmol/kg/24 h | Electrolyte fractional excretion rate (EFER) calcium: mean difference between groups ([2]; in vivo): −0.48% | Fractional Pi reabsorption rate (Pi/GFR): mean difference between groups ([2]; in vivo): -0.000059 mmol/mL | Sodium excretion: mean difference between groups ([2]; in vivo): −1.18 mmol/m^2/24 h | Fractional Pi reabsorption rate (Pi/GFR): mean difference between groups ([2]; in vivo, listed as GHRH(1-29)NH2 synthetic analog): -0.00006 mmol/mL | Fasting cholesterol: mean difference (GHRH-Placebo) ([3]; ITT): −0.58 | Albumin: median ([3]; ITT, Baseline): 41.0 g/L | Fasting glucose: median ([3]; ITT, Baseline): 5.1 mmol/L | Fasting insulin: median ([3]; ITT, Baseline): 8.4 μ units/mL | Fasting triglycerides: median ([3]; ITT, Baseline): 1.40 mmol/L | Pre-albumin: mean (SD) ([3]; ITT, Baseline): 0.216 (0.088) g/L | Transferrin: mean (SD) ([3]; ITT, Baseline): 2.202 (0.315) g/L | Albumin: median ([3]; ITT, Day 28): 40.4 g/L | Fasting glucose: median ([3]; ITT, Day 28): 5.4 mmol/L | Fasting insulin: median ([3]; ITT, Day 28): 12.1 μ units/mL | Fasting triglycerides: median ([3]; ITT, Day 28): 1.98 mmol/L | HbA1c: median ([3]; ITT, Day 28): 5.606% | Pre-albumin: mean (SD) ([3]; ITT, Day 28): 0.201 (0.103) g/L | Transferrin: mean (SD) ([3]; ITT, Day 28): 2.383 (0.370) g/L | Fasting cholesterol: median [3, 5]: 4.69 mmol/L | HbA1c: median ([3]; ITT, Screening): 5.516% | Fasting glucose: ratio of means ([3]; ITT, vs placebo): 1.030 | Fasting insulin: ratio of means ([3]; ITT, vs placebo): 1.79 and 1.788 | Fasting triglycerides: ratio of means ([3]; ITT, vs placebo): 1.199 | Pre-albumin: comparison or ratio of means ([3]; ITT, vs placebo): −0.093 | Transferrin: comparison or ratio of means ([3]; ITT, vs placebo): 0.06 | Fasting insulin: median ([3]; day 7): 14.2 μunits/ml | Fasting insulin: median ([3]; day 14): 15.5 μunits/ml | Reduction of mean cholesterol in almost all patients (10/12) ([3]; in vivo): up to 10% | Clastogenicity [4]: not a clastogenic agent | Mutagenicity ([4]; Salmonella strains, CHO cells, erythrocyte micronucleus test): no evidence of mutagenicity
